Data: patent US12365655B2, “Compounds” (CTXT PTY LTD, priority 2018, dated 2025)
Counter-ions that a name gives are not always drawn.

How the values were obtained:
[1] = biological target: TIP60-KAT5 (Homo sapiens, UniProt Q92993); experiment: Acetyltransferase biochemical assay (AlphaScreen), KAT5
[2] = biological target: MOZ-KAT6A (Homo sapiens, UniProt Q92794, A567V); experiment: Acetyltransferase biochemical assay (AlphaScreen), KAT6A
[3] = biological target: HBO-KAT7 (Homo sapiens, UniProt O95251); experiment: Acetyltransferase biochemical assay (AlphaScreen), KAT7
Sequence of HBO-KAT7 (O95251 with tags, fused parts or gaps): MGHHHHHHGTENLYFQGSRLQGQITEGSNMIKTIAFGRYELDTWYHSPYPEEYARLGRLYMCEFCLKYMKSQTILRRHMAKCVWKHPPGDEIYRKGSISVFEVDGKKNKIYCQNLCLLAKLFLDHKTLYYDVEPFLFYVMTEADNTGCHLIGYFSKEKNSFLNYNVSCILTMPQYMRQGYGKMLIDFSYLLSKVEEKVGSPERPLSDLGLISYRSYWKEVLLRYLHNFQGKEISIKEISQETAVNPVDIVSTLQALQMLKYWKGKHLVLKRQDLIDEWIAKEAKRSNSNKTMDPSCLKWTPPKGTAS

Sequence of MOZ-KAT6A (Q92794 with tags, fused parts or gaps A567V): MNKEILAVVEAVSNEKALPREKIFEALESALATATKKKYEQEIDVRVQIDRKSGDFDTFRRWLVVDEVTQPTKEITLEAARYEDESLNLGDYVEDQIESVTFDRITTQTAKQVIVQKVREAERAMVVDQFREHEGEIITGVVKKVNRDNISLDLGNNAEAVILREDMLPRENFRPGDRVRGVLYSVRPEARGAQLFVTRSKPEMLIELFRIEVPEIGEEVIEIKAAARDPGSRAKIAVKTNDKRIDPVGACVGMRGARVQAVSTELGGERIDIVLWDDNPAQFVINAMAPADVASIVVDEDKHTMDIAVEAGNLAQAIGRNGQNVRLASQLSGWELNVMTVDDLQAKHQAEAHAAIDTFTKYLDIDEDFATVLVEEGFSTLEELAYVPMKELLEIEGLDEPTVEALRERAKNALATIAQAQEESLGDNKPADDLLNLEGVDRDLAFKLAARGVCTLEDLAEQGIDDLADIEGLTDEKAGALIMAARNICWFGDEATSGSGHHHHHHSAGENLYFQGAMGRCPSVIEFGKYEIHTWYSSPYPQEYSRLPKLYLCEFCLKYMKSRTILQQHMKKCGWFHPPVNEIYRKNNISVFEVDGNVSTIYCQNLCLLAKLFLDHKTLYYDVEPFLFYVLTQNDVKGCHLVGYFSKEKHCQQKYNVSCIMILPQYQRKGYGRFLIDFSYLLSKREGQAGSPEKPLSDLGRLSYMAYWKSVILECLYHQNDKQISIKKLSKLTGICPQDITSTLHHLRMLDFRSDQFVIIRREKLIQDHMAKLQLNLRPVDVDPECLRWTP
Sequence of TIP60-KAT5 (Q92993 with tags, fused parts or gaps isoform Q92993-2): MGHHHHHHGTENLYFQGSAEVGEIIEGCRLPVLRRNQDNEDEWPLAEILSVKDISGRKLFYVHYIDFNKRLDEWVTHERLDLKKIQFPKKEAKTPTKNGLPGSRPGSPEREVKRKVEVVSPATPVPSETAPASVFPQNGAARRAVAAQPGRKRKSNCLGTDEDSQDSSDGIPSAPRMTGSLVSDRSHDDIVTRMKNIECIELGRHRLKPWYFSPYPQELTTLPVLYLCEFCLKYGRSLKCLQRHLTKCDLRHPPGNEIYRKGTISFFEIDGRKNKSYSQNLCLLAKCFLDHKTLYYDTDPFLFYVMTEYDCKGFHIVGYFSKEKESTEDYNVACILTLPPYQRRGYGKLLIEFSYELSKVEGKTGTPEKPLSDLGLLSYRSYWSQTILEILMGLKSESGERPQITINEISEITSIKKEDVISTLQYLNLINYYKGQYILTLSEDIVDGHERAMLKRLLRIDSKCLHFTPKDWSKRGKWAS

Compound | IC50 [1] [µM] | IC50 [2] [µM] | IC50 [3] [µM]
CCc1ccc(OC)c(S(=O)(=O)Nc2noc3ccc(Br)cc23)c1 [Example 135] | 4.79 | 0.563 | 1.43
CCc1ccc(OC)c(S(=O)(=O)Nc2noc3c(-c4ncccn4)cccc23)c1 [Example 136, 5-Ethyl-2-methoxy-N-(7-(pyrimidin-2-yl)benzo[d]isoxazol-3-yl)benzenesulfonamide] | > 125 | 34.3 | 28.3
CCc1ccc(OC)c(S(=O)(=O)Nc2noc3c(Br)cccc23)c1 [Example 137] | 14.2 | 8.58 | 6.56
CCc1ccc(OC)c(S(=O)(=O)Nc2noc3cc(Br)ccc23)c1 [Example 138] | 5.11 | 2.89 | 3.68
CCOc1ccc2c(NS(=O)(=O)c3cc(CC)ccc3OC)noc2c1 [Example 139] | 34.3 | 2.14 | 10
CCc1ccc(OC)c(S(=O)(=O)Nc2noc3cc(-c4ccccn4)ccc23)c1 [Example 140, 5-Ethyl-2-methoxy-N-(6-(pyridin-2-yl)benzo[d]isoxazol-3-yl)benzenesulfonamide] | 47.8 | 2.26 | 9.9
COc1cc(Br)ccc1S(=O)(=O)Nc1noc2ccccc12 [Example 141] | > 125 | 39.6 | 24.3
COc1cccc(OC)c1S(=O)(=O)Nc1noc2c(-c3ccccc3)ccc(OC)c12 [Example 142, 2,6-Dimethoxy-N-(4-methoxy-7-phenylbenzo[d]isoxazol-3-yl)benzenesulfonamide] | 32.2 | 3.3 | 1.16
CCc1ccc(OC)c(S(=O)(=O)Nc2noc3ccc(Cl)cc23)c1 [Example 150] | 50 | 4.97 | 8.04
CCc1ccc(OC)c(S(=O)(=O)Nc2noc3c(F)cccc23)c1 [Example 152] | 38.9 | 6.28 | 9.87
CCc1ccc(OC)c(S(=O)(=O)Nc2noc3ccc(C)c(Cl)c23)c1 [Example 153] | 4.05 | 0.437 | 0.507
COc1ccccc1S(=O)(=O)Nc1noc2cccc(F)c12 [Example 156] | > 125 | 1.54 | 1.97
COc1ccccc1S(=O)(=O)Nc1noc2cc(Br)ccc12 [Example 157] | > 125 | 23 | 15.5
COc1ccccc1S(=O)(=O)Nc1noc2cc(Cl)ccc12 [Example 158] | > 125 | 62.6 | 44.9
O=S(=O)(Nc1noc2cccc(Cl)c12)c1cccc2ccncc12 [Example 159, N-(4-chlorobenzo[d]isoxazol-3-yl)isoquinoline-8-sulfonamide] | > 125 | 66.6 | 37.6
COCc1cc(OC)c2c(NS(=O)(=O)c3c(OC)cccc3OC)noc2c1I [Example 160] | 46.2 | 1.05 | 1.58
COc1ccc(S(=O)(=O)Nc2noc3cc(CO)ccc23)c(OC)c1 [Example 167] | 32.2 | 8.67 | 6.85
COc1ccc(S(=O)(=O)Nc2noc3cc(C#N)c(C)cc23)c(OC)c1 [Example 169] | 63.2 | 24.8 | 8.65
CCc1ccc(OC)c(S(=O)(=O)Nc2noc3cc(-c4ccccc4)ccc23)c1 [Example 179, 5-Ethyl-2-methoxy-N-(6-phenylbenzo[d]isoxazol-3-yl)benzenesulfonamide] | 32.1 | 2.86 | 13.5
O=S(=O)(Nc1noc2cccc(Cl)c12)c1cccc2c1OCC2 [Example 180, N-(4-Chlorobenzo[d]isoxazol-3-yl)-2,3-dihydrobenzofuran-7-sulfonamide] | 25.5 | 9.44 | 1.76
CCc1cc2c(c(S(=O)(=O)Nc3noc4cccc(Cl)c34)c1)OCC2 [Example 181, N-(4-Chlorobenzo[d]isoxazol-3-yl)-5-ethyl-2,3-dihydrobenzofuran-7-sulfonamide] | 23.8 | 1.06 | 5.14
CCc1ccc(S(=O)(=O)Nc2noc3ccccc23)c(OC)c1 [Example 182] | 65.6 | 15.2 | 15.6
COc1cc(-c2ccccc2)ccc1S(=O)(=O)Nc1noc2ccccc12 [Example 183, N-(Benzo[d]isoxazol-3-yl)-3-methoxy-[1,1-biphenyl]-4-sulfonamide] | 33.2 | 5.6 | 4.48

Compound | IC50 [1] [µM] | IC50 [2] [µM] | IC50 [3] [µM]
CCc1ccc(OC)c(S(=O)(=O)Nc2noc3c(C(=O)NC)cccc23)c1 [Example 184, 3-(5-Ethyl-2-methoxyphenylsulfonamido)-N-methylbenzo[d]isoxazole-7-carboxamide] | > 125 | > 125 | 31
CCc1ccc(OC)c(S(=O)(=O)Nc2noc3c(C(=O)N(C)C)cccc23)c1 [Example 185, 3-(5-Ethyl-2-methoxyphenylsulfonamido)-N,N-dimethylbenzo[d]isoxazole-7-carboxamide] | > 125 | 105 | 60.7
CCc1ccc(OC)c(S(=O)(=O)Nc2noc3c(CO)cccc23)c1 [Example 186] | 84.7 | 25.2 | 47.1
CCc1ccc(OC)c(S(=O)(=O)Nc2noc3c(C)cccc23)c1 [Example 187, 5-Ethyl-2-methoxy-N-(7-methylbenzo[d]isoxazol-3-yl)benzenesulfonamide] | 65.3 | 5.66 | 22
CCc1ccc(OC)c(S(=O)(=O)Nc2noc3c(CC)cccc23)c1 [Example 188] | 69.9 | 9.23 | 40.1
CCc1ccc(OC)c(S(=O)(=O)Nc2noc3c(C4CC4)cccc23)c1 [Example 189] | 32 | 4.35 | 8.02
CCc1ccc(OC)c(S(=O)(=O)Nc2noc3c(C4CCCCC4)cccc23)c1 [Example 190] | 19.9 | 9.73 | 18.5
CCc1ccc(OC)c(S(=O)(=O)Nc2noc3c(-c4cncnc4)cccc23)c1 [Example 192, 5-Ethyl-2-methoxy-N-(7-(pyrimidin-5-yl)benzo[d]isoxazol-3-yl)benzenesulfonamide] | 29.9 | 9.39 | 24.2
CCc1ccc(OC)c(S(=O)(=O)Nc2noc3cc(C)ccc23)c1 [Example 193, 5-Ethyl-2-methoxy-N-(6-methylbenzo[d]isoxazol-3-yl)benzenesulfonamide] | 53.1 | 1.95 | 15.5
CCc1ccc(OC)c(S(=O)(=O)Nc2noc3cc(CC)ccc23)c1 [Example 194] | 37.8 | 1.51 | 6.87
CCc1ccc(OC)c(S(=O)(=O)Nc2noc3cc(C4CC4)ccc23)c1 [Example 195] | 16.7 | 1.32 | 4.96
CCc1ccc(OC)c(S(=O)(=O)Nc2noc3cc(-c4cnn(C)c4)ccc23)c1 [Example 196, 5-Ethyl-2-methoxy-N-(6-(1-methyl-1H-pyrazol-4-yl)benzo[d]isoxazol-3-yl)benzenesulfonamide] | 95.4 | 13.9 | 23.3
CCc1ccc(OC)c(S(=O)(=O)Nc2noc3cc(-c4cncnc4)ccc23)c1 [Example 197, 5-Ethyl-2-methoxy-N-(6-(pyrimidin-5-yl)benzo[d]isoxazol-3-yl)benzenesulfonamide] | > 125 | 21 | 45.7
CCc1ccc(OC)c(S(=O)(=O)Nc2noc3cccc(C)c23)c1 [Example 198, 5-Ethyl-2-methoxy-N-(4-methylbenzo[d]isoxazol-3-yl)benzenesulfonamide] | 73.7 | 2.82 | 6.95
CCc1ccc(OC)c(S(=O)(=O)Nc2noc3cccc(CC)c23)c1 [Example 199] | 14.9 | 0.709 | 0.632
CCc1ccc(OC)c(S(=O)(=O)Nc2noc3cccc(C4CC4)c23)c1 [Example 200] | 4.73 | 0.364 | 0.678
CCc1ccc(OC)c(S(=O)(=O)Nc2noc3cccc(C4CCCCC4)c23)c1 [Example 201] | 21.8 | 1.48 | 0.773
CCc1ccc(OC)c(S(=O)(=O)Nc2noc3cccc(-c4cnn(C)c4)c23)c1 [Example 202, 5-Ethyl-2-methoxy-N-(4-(1-methyl-1H-pyrazol-4-yl)benzo[d]isoxazol-3-yl)benzenesulfonamide] | 111 | 18.9 | 54.4
CCc1ccc(OC)c(S(=O)(=O)Nc2noc3cccc(-c4cncnc4)c23)c1 [Example 203, 5-Ethyl-2-methoxy-N-(4-(pyrimidin-5-yl)benzo[d]isoxazol-3-yl)benzenesulfonamide] | 74.3 | 22.6 | 23.4
CCc1ccc(OC)c(S(=O)(=O)Nc2noc3ccc(CC)c(Cl)c23)c1 [Example 206] | 6.36 | 0.302 | 0.626
CCc1ccc(OC)c(S(=O)(=O)Nc2noc3ccc(C4CC4)c(OC)c23)c1 [Example 208] | 28.5 | 1.63 | 4.65
COc1cc(CO)cc(OC)c1S(=O)(=O)Nc1noc2cccc(OC)c12 [Example 209, 4-(Hydroxymethyl)-2,6-dimethoxy-N-(4-methoxybenzo[d]isoxazol-3-yl)benzenesulfonamide] | 28.7 | 2.03 | 1.05
COc1cc(CN)cc(OC)c1S(=O)(=O)Nc1noc2cccc(OC)c12 [Example 210, 4-(Aminomethyl)-2,6-dimethoxy-N-(4-methoxybenzo[d]isoxazol-3-yl)benzenesulfonamide hydrochloride] | > 125 | 8.53 | 6.54
